# Measurements taken from publication PMC9221290, “Alkaloids of Dicranostigma franchetianum (Papaveraceae) and Berberine Derivatives as a New Class of Antimycobacterial Agents” (Biomolecules, 2022).
# Where two headings read alike, the source gives them in different places.
# What was measured:
# [1] = test system: Mtb H37Ra ITM-M006710 (ATCC 9431); test: Antimycobacterial microdilution broth assay (resazurin), Mtb H37Ra; assay type: cell-based, Mycobacterium tuberculosis
# [2] = test system: Mycolicibacterium aurum DSM 43999 (ATCC 23366); test: Antimycobacterial microdilution broth assay (resazurin), M. aurum; assay type: cell-based; conditions: 72 h; for MIC: Mycolicibacterium aurum, read-out: MIC M. aurum, microdilution broth, resazurin, 72 h; for MIC M. aurum: microdilution broth, resazurin
# [3] = test system: Mycobacterium avium DSM 44156 (ATCC 25291); test: Antimycobacterial microdilution broth assay (resazurin), M. avium; assay type: cell-based; conditions: 96 h; for MIC: Mycobacterium avium, read-out: MIC M. avium, microdilution broth, resazurin, 96 h; for MIC M. avium: microdilution broth, resazurin
# [4] = test system: Mycobacterium kansasii DSM 44162 (ATCC 12478); test: Antimycobacterial microdilution broth assay (resazurin), M. kansasii; assay type: cell-based; conditions: 96 h; for MIC: Mycobacterium kansasii, read-out: MIC M. kansasii, microdilution broth, resazurin, 96 h
# [5] = test system: Mycolicibacterium smegmatis DSM 43465 (ATCC 607); test: Antimycobacterial microdilution broth assay (resazurin), M. smegmatis; assay type: cell-based; conditions: 48 h; for MIC: Mycolicibacterium smegmatis, read-out: MIC M. smegmatis, microdilution broth, resazurin, 48 h; for MIC M. smegmatis: microdilution broth, resazurin
# HepG2 cells [6] = test system: HepG2 cells
# HepG2 cells [7] = test: cells; conditions: Homo sapiens, HepG2, 24 h
# in vitro = conditions: human, % of cell viability compared to control; for viability at 1 µM: HepG2, 1 µM; for viability at 5 µM: HepG2, 5 µM; for viability at 10 µM: HepG2, 10 µM; for viability at 100 µM: HepG2, 100 µM; for viability at 25 µM: HepG2, 25 µM; for viability at 50 µM: HepG2, 50 µM; for viability at 75 µM: HepG2, 75 µM
# [8] = Mycobacterium tuberculosis, 120 h, microdilution broth, resazurin, 120 h, read-out: MIC Mtb H37Ra
# [9] = Mycobacterium tuberculosis, calculated from MIC (µg/mL) and MW, read-out: MIC Mtb H37Ra
# [10] = read-out: HepG2 IC50, 1. measurement, MTT, 24 h, single measurement 1
# [11] = read-out: HepG2 IC50, 2. measurement, MTT, 24 h, single measurement 2
# [12] = read-out: HepG2 IC50, 3. measurement, MTT, 24 h, single measurement 3
# [13] = read-out: HepG2 IC50, MTT, 24 h incubation
# [14] = microdilution broth, resazurin, 120 h
# [15] = Mycobacterium tuberculosis, 120 h, read-out: MIC Mtb H37Ra, microdilution broth, resazurin, 120 h
# [16] = Mycobacterium tuberculosis, read-out: MIC Mtb H37Ra (µM), calculated from MIC (µg/mL) and MW
molecule,measurement,setting,value
"COc1ccc2cc3[n+](cc2c1OCc1ccccc1)CCc1cc2c(cc1-3)OCO2 [16a, 9-O-benzylberberine chloride]",MIC,[1]; [8],6.25 µg/mL
same,MIC,[1]; [9],13.9 µM
same,MIC,[2],3.12 µg/mL
same,MIC,[3],3.12 µg/mL
same,MIC,[4],6.25 µg/mL
same,MIC,[5],0.78 µg/mL
same,SI (selectivity index),HepG2 cells [6],1.76
same,IC50,HepG2 cells [7]; [10],29.1 µM
same,IC50,HepG2 cells [7]; [11],20.8 µM
same,IC50,HepG2 cells [7]; [12],23.5 µM
same,IC50,HepG2 cells [7]; [13],24.5 ± 4.25 µM
same,viability at 1 µM,in vitro; 1. measurement,93.4%
same,viability at 5 µM,in vitro; 1. measurement,81.9%
same,viability at 10 µM,in vitro; 1. measurement,68.9%
same,viability at 20 µM,"in vitro; 1. measurement, HepG2, 20 µM",59.4%
same,viability at 40 µM,"in vitro; 1. measurement, HepG2, 40 µM",56.2%
same,viability at 60 µM,"in vitro; 1. measurement, HepG2, 60 µM",41.5%
same,viability at 80 µM,"in vitro; 1. measurement, HepG2, 80 µM",20.2%
same,viability at 100 µM,in vitro; 1. measurement,8.76%
same,viability at 1 µM,in vitro; 2. measurement,87.9%
same,viability at 5 µM,in vitro; 2. measurement,73%
same,viability at 10 µM,in vitro; 2. measurement,59.2%
same,viability at 25 µM,in vitro; 2. measurement,48.9%
same,viability at 50 µM,in vitro; 2. measurement,42.1%
same,viability at 75 µM,in vitro; 2. measurement,31.1%
same,viability at 100 µM,in vitro; 2. measurement,16.6%
same,viability at 1 µM,in vitro; 3. measurement,96.4%
same,viability at 5 µM,in vitro; 3. measurement,76.4%
same,viability at 10 µM,in vitro; 3. measurement,60.7%
same,viability at 25 µM,in vitro; 3. measurement,50.3%
same,viability at 50 µM,in vitro; 3. measurement,44.9%
same,viability at 75 µM,in vitro; 3. measurement,29.6%
same,viability at 100 µM,in vitro; 3. measurement,15.3%
"COc1ccc2cc3[n+](cc2c1OCc1ccccc1C)CCc1cc2c(cc1-3)OCO2 [16b, 9-O-(2-methylbenzyl)berberine chloride]",MIC,[1]; [8],7.81 µg/mL
same,MIC,[1]; [9],16.9 µM
same,MIC,[2],7.81 µg/mL
same,MIC,[3],3.91 µg/mL
same,MIC,[4],3.91 µg/mL
same,MIC,[5],1.95 µg/mL
same,SI (selectivity index),HepG2 cells [6],2.32
same,IC50,HepG2 cells [7]; [10],36 µM
same,IC50,HepG2 cells [7]; [11],38.6 µM
same,IC50,HepG2 cells [7]; [12],43.2 µM
same,IC50,HepG2 cells [7]; [13],39.3 ± 3.62 µM
same,viability at 1 µM,in vitro; 1. measurement,96%
same,viability at 5 µM,in vitro; 1. measurement,83.6%
same,viability at 10 µM,in vitro; 1. measurement,73%
same,viability at 25 µM,in vitro; 1. measurement,48.6%
same,viability at 50 µM,in vitro; 1. measurement,41.5%
same,viability at 75 µM,in vitro; 1. measurement,39.3%
same,viability at 100 µM,in vitro; 1. measurement,37.5%
same,viability at 1 µM,in vitro; 2. measurement,97.8%
same,viability at 5 µM,in vitro; 2. measurement,87.1%
same,viability at 10 µM,in vitro; 2. measurement,76.6%
same,viability at 25 µM,in vitro; 2. measurement,51.6%
same,viability at 50 µM,in vitro; 2. measurement,42.5%
same,viability at 75 µM,in vitro; 2. measurement,41.1%
same,viability at 100 µM,in vitro; 2. measurement,33.8%
same,viability at 0.1 µM,"in vitro; 3. measurement, HepG2, 0.1 µM",99.5%
same,viability at 1 µM,in vitro; 3. measurement,99.4%
same,viability at 5 µM,in vitro; 3. measurement,88.8%
same,viability at 10 µM,in vitro; 3. measurement,76.5%
same,viability at 25 µM,in vitro; 3. measurement,51.6%
same,viability at 50 µM,in vitro; 3. measurement,44.9%
same,viability at 75 µM,in vitro; 3. measurement,42.6%
same,viability at 100 µM,in vitro; 3. measurement,38.5%
"O=C(O)c1cn(C2CC2)c2cc(N3CCNCC3)c(F)cc2c1=O [ciprofloxacin, reference compound]",MIC,[1]; [8],0.125 to 0.25 µg/mL
same,MIC,[1]; [9],0.75 µM
same,MIC Mtb H37Ra,[1]; [14],0.25 µg/mL
same,MIC M. aurum,[2],0.01562 µg/mL
same,MIC M. aurum,[2]; listed as CPX,0.0078 to 0.0156 µg/mL
same,MIC,[3],0.5 µg/mL
same,MIC,[4],0.25 µg/mL
same,MIC,[5],0.0625 to 0.125 µg/mL
same,MIC M. smegmatis,[5],0.0625 µg/mL
"CN1Cc2c(ccc3c2OCO3)-c2ccc3cc4c(cc3c21)OCO4 [compound 1, dihydrosanguinarine]",MIC,[1]; [8],≥ 500 µg/mL
same,MIC,[1]; [9],≥ 1500 µM
same,MIC,[2],≥ 500 µg/mL
same,MIC,[3],≥ 500 µg/mL
same,MIC,[4],125 µg/mL
same,MIC,[5],≥ 500 µg/mL
"COc1ccc2c(c1OC)CN(C)c1c-2ccc2cc3c(cc12)OCO3 [compound 2, dihydrochelerythrine]",MIC,[1]; [8],250 µg/mL
same,MIC,[1]; [9],716 µM
same,MIC,[2],250 µg/mL
same,MIC,[3],62.5 µg/mL
same,MIC,[4],250 µg/mL
same,MIC,[5],≥ 500 µg/mL
"c1cc2c(c3c1C[C@H]1c4cc5c(cc4CCN1C3)OCO5)OCO2 [compound 4, stylopine]",MIC,[1]; [8],≥ 125 µg/mL
same,MIC,[1]; [9],≥ 387 µM
same,MIC,[2],≥ 125 µg/mL
same,MIC,[3],≥ 125 µg/mL
same,MIC,[4],≥ 125 µg/mL
same,MIC,[5],≥ 125 µg/mL
"COc1ccc2c(c1OC)CN(C)CCc1cc3c(cc1C(=O)C2)OCO3 [compound 7, allocryptopine]",MIC,[1]; [8],≥ 250 µg/mL
same,MIC,[1]; [9],≥ 678 µM
same,MIC,[2],≥ 250 µg/mL
same,MIC,[3],≥ 250 µg/mL
same,MIC,[4],250 µg/mL
same,MIC,[5],≥ 250 µg/mL
"COc1cc2c(cc1OC)C(=O)Cc1ccc3c(c1CN(C)CC2)OCO3 [compound 8, cryptopine]",MIC,[1]; [8],≥ 125 µg/mL
same,MIC,[1]; [9],≥ 339 µM
same,MIC,[2],≥ 125 µg/mL
same,MIC,[3],≥ 125 µg/mL
same,MIC,[4],≥ 125 µg/mL
same,MIC,[5],≥ 125 µg/mL
"COc1ccc2c(c1O)-c1c(OC)c(OC)cc3c1[C@H](C2)N(C)CC3 [compound 10, isocorydine]",MIC,[1]; [8],≥ 500 µg/mL
same,MIC,[1]; [9],≥ 1430 µM
same,MIC,[2],≥ 500 µg/mL
same,MIC,[3],≥ 500 µg/mL
same,MIC,[4],125 µg/mL
same,MIC,[5],≥ 500 µg/mL
"COc1cc2c(cc1OC)-c1c(OC)c(OC)cc3c1[C@H](C2)N(C)CC3 [compound 11, glaucine]",MIC,[1]; [15],125 µg/mL
same,MIC,[1]; [16],≥ 352 µM
same,MIC,[2],125 µg/mL
same,MIC,[3],125 µg/mL
same,MIC,[4],62.5 µg/mL
same,MIC,[5],≥ 250 µg/mL
"COc1cc2c3c(c1O)-c1c(ccc(OC)c1OC)C[C@@H]3N(C)CC2 [compound 12, corydine]",MIC,[1]; [8],≥ 500 µg/mL
same,MIC,[1]; [9],≥ 1470 µM
same,MIC,[2],250 µg/mL
same,MIC,[3],62.5 µg/mL
same,MIC,[4],250 µg/mL
same,MIC,[5],≥ 500 µg/mL
"COc1cc2c(cc1O)[C@@H]1Cc3ccc(OC)c(OC)c3CN1CC2 [compound 13, isocorypalmine]",MIC,[1]; [15],≥ 250 µg/mL
same,MIC,[1]; [16],≥ 733 µM
same,MIC,[2],≥ 250 µg/mL
same,MIC,[3],≥ 250 µg/mL
same,MIC,[4],≥ 250 µg/mL
same,MIC,[5],≥ 250 µg/mL
"COc1cc2c(cc1O)[C@@H]1Cc3ccc(OC)c(O)c3CN1CC2 [compound 15, scoulerine]",MIC,[1]; [8],250 µg/mL
same,MIC,[1]; [9],764 µM
same,MIC,[2],125 µg/mL
same,MIC,[3],250 µg/mL
same,MIC,[4],15.6 µg/mL
same,MIC,[5],125 µg/mL
"COc1cccc2c1C(=O)c1c(O)c3c(c(O)c1C2=O)C[C@@](O)(C(=O)CO)C[C@@H]3O[C@H]1C[C@H](N)[C@H](O)[C@H](C)O1 [doxorubicine, reference compound]",IC50,HepG2 cells [7]; [13],30.4 ± 1.74 µM
"NNC(=O)c1ccncc1 [isoniazid, reference compound]",MIC,[1]; [8],0.125 to 0.25 µg/mL
same,MIC,[1]; [9],1.82 µM
same,MIC Mtb H37Ra,[1]; [14],0.25 µg/mL
same,MIC M. aurum,[2],3.91 µg/mL
same,MIC M. aurum,[2]; listed as INH,1.95 to 3.91 µg/mL
same,MIC,[3],500 to 1000 µg/mL
same,MIC M. avium,[3],500 µg/mL
same,MIC,[4],3.12 to 6.25 µg/mL
same,MIC M. kansasii,"[4]; microdilution broth, resazurin",6.25 µg/mL
same,MIC,[5],15.6 to 31.2 µg/mL
same,MIC M. smegmatis,[5],31.25 µg/mL
"CO[C@H]1/C=C/O[C@@]2(C)Oc3c(C)c(O)c4c(O)c(c(/C=N/N5CCN(C)CC5)c(O)c4c3C2=O)NC(=O)/C(C)=C\C=C\[C@H](C)[C@H](O)[C@@H](C)[C@@H](O)[C@@H](C)[C@H](OC(C)=O)[C@@H]1C [rifampicin, reference compound]",MIC,[1]; [16],0.0075 µM
same,MIC Mtb H37Ra,"[1]; microdilution broth, resazurin, 120 h, listed as RIF",0.00156 to 0.0031 µg/mL
same,MIC,[2],0.39 to 0.78 µg/mL
same,MIC M. aurum,[2],0.39 µg/mL
protopine [compound 6],MIC,"[1]; calculated from MIC (µg/mL) and MW, read-out: MIC Mtb H37Ra",≥1416 µM
same,MIC Mtb H37Ra,[1]; [14],≥500 µg/mL
same,MIC M. aurum,[2],≥500 µg/mL
same,MIC M. avium,[3],250 µg/mL
same,MIC M. smegmatis,[5],≥500 µg/mL
